These results are taken from patent US11304926B2, “Application of transient receptor potential cation channel TRPV3 in developing drug for preventing or treating psoriasis” (CHINA PHARMACEUTICAL UNIVERSITY, priority 2019, dated 2022).

The target in this experiment is T1, mTRPV3 (Mus musculus, UniProt Q8K424).
T1 construct: expressed in transfected cells
T1 sequence (Q8K424 1-791): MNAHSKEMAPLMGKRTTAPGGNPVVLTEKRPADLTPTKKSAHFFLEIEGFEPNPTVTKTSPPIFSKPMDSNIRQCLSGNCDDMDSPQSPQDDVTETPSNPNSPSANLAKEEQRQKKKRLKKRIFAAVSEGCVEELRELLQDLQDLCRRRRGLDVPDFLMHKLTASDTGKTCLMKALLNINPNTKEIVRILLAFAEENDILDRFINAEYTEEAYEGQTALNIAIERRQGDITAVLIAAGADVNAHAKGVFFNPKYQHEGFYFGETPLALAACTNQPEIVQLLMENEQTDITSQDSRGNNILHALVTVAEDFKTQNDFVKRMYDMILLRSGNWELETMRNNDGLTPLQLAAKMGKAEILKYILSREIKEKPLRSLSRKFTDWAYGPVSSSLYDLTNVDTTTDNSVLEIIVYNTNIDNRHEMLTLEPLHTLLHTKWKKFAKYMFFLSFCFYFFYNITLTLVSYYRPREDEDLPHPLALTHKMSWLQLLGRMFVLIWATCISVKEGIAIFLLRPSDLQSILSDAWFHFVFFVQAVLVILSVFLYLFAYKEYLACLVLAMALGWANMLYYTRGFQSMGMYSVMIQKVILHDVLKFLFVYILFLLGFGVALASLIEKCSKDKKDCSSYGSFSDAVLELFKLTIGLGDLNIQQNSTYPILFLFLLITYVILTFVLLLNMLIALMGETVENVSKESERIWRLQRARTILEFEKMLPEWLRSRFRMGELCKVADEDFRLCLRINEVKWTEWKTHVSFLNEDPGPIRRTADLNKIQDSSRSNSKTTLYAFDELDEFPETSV
The experiment in a line: Intracellular calcium fluorescence (Fluo-4, FLIPR) in HEK-293 cells stably transfecting mTRPV3, 2-APB induced. The format is cell-based. As to conditions: Scutellarein 10 μM, 2-APB 300 μM, mTRPV3-HEK-293. How it is done: mTRPV3 plasmids were donated by Professor Jie Zheng from UC Davis. Transfection steps were as follows: HEK-293 cells with a confluence ranging from 70% to 80% and a good growth state were seeded into T-60 small dishes the day before transfection, each small dish contained 4×10^5 cells, and the cells were cultured without penicillin/streptomycin overnight at 37° C. in 5% CO2. 10 μL of plasmids (plasmid concentration was 1000 ng/μL) were diluted with 250 μl of DMEM (article number: 12800017, Gibco), and meanwhile, 10 μL of Lipofectamine 2000 (article number: 11668027, Gibco) was diluted into 250 μL of DMEM. […] Monoclone cells were selected by a limiting dilution method: the screened cells were digested and counted, and seeded into a 96-well plate in sequence at densities of 10^4 cells/well, 10^3 cells/well, 10^2 cells/well, 10 cells/well, and 1 cell/well. Under a fluorescence microscope, wells of separate cells with green fluorescence were labeled, and cells amplified from the wells were HEK-293 cells stably transfecting the mTRPV3. […] The cell plate was placed in a preheated FLIPR® ^TETRA (Molecular Devices, Sunnyvale, Calif., USA) at 30° C., and excited at a wavelength of 488 nm, and fluorescence signals were continuously recorded at a sampling frequency of 1 second at a wavelength range of 515 nm to 575 nm. […]

“Also recorded” adds a separate entry of the source.

Consider `O=c1cc(-c2ccc(O)cc2)oc2cc(O)c(O)c(O)c12` [Scutellarein], for which the “inhibition of increase of intracellular calcium concentration (calcium influx) induced by 2-APB” value is “could inhibit increase of the intracellular calcium concentration; also recorded: obvious inhibitory effect”.
